Laboratory results published in ChEMBL document CHEMBL5465560, “Selectivity Literature for EUbOPEN Chemogenomic Library” (2024).

Experiments:
[1] = molecular target: Protein-tyrosine kinase 6 (Homo sapiens, UniProt Q13882); experiment: Selectivity interaction (KinomeScan (DiscoverX)) EUB0000229b PTK6; conditions: at 10 µM
[2] = molecular target: Vascular endothelial growth factor receptor 1 (Homo sapiens) (UniProt P17948); experiment: Selectivity interaction (KinomeScan (DiscoverX)) EUB0000045b FLT1
Chain of Vascular endothelial growth factor receptor 1 (Homo sapiens) (P17948 whole entry): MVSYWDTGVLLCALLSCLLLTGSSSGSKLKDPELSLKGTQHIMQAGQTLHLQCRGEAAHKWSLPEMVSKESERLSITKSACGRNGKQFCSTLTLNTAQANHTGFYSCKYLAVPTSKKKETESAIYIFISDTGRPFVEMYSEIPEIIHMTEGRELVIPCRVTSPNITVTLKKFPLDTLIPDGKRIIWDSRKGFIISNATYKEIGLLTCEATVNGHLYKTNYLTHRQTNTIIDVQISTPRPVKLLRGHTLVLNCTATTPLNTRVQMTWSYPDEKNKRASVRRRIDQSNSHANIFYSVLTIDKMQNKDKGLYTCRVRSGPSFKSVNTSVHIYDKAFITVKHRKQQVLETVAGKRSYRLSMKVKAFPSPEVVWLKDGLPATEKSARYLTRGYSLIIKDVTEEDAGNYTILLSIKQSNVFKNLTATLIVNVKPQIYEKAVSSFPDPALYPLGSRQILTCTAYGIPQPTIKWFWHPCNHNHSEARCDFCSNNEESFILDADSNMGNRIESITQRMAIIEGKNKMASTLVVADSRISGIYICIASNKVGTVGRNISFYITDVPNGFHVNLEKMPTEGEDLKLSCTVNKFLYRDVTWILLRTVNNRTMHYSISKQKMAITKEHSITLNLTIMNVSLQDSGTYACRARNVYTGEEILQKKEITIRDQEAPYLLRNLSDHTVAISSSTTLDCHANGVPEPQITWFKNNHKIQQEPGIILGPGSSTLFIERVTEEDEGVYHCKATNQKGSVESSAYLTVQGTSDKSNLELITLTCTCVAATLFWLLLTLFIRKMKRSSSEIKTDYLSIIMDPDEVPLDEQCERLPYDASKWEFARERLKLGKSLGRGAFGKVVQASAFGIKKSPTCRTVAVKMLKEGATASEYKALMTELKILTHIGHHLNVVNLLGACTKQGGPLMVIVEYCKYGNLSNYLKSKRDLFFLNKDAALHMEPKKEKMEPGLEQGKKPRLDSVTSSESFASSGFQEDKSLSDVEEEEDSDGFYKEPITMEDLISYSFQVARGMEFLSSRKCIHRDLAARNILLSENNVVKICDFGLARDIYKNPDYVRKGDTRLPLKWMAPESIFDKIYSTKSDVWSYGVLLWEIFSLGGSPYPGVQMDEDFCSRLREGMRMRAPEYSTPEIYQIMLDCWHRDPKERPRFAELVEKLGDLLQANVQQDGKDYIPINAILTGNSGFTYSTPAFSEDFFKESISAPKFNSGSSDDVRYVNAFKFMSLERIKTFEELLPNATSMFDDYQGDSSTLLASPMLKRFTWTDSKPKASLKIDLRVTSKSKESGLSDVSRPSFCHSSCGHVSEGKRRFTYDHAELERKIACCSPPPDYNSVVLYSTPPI

[3] = molecular target: Rho-associated protein kinase 1 (Homo sapiens) (UniProt Q13464); experiment: Selectivity interaction (Kinase panel (Z-LYTE Assay)) EUB0001632a ROCK1; conditions: at 10 µM
Chain of Rho-associated protein kinase 1 (Homo sapiens) (Q13464 2-1354 limits assumed): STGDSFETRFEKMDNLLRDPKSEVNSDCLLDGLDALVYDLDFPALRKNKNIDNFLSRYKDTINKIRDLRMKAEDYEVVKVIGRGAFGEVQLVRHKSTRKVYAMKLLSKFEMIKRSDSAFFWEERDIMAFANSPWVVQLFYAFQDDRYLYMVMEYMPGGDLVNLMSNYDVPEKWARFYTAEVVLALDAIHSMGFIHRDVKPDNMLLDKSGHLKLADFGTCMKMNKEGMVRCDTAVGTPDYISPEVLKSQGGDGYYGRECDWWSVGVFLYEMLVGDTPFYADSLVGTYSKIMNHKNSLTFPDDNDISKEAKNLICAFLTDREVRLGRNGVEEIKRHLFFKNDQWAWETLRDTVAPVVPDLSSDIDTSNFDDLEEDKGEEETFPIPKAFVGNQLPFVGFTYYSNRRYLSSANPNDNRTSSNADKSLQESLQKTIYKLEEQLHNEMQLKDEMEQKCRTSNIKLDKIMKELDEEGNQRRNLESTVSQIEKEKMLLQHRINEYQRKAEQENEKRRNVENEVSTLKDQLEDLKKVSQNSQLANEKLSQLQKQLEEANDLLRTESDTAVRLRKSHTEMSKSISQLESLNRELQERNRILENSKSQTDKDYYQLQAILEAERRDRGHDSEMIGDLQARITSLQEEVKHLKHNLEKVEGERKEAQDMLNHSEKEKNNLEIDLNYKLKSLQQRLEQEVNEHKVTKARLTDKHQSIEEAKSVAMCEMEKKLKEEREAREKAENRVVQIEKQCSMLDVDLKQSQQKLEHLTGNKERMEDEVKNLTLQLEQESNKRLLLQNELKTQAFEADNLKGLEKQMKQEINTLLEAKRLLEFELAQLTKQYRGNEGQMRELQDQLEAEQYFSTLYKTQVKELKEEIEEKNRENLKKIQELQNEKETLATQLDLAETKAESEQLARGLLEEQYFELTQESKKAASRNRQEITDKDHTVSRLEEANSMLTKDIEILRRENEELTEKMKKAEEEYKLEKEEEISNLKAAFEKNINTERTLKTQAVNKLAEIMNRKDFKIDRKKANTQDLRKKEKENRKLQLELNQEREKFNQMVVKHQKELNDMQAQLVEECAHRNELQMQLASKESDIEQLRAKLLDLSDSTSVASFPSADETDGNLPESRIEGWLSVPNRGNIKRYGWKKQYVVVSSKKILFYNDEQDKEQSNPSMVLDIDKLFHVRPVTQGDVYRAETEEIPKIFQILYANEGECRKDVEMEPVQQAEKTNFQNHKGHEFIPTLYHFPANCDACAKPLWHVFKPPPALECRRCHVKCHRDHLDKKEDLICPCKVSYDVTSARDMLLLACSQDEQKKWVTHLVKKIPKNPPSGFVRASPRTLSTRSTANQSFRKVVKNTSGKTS

[4] = molecular target: T1, Tyrosine-protein kinase receptor TYRO3 (Homo sapiens) (UniProt Q06418); experiment: Selectivity interaction (Kinase screening (Nanosyn)) EUB0000604a TYRO3
T1 sequence (whole entry): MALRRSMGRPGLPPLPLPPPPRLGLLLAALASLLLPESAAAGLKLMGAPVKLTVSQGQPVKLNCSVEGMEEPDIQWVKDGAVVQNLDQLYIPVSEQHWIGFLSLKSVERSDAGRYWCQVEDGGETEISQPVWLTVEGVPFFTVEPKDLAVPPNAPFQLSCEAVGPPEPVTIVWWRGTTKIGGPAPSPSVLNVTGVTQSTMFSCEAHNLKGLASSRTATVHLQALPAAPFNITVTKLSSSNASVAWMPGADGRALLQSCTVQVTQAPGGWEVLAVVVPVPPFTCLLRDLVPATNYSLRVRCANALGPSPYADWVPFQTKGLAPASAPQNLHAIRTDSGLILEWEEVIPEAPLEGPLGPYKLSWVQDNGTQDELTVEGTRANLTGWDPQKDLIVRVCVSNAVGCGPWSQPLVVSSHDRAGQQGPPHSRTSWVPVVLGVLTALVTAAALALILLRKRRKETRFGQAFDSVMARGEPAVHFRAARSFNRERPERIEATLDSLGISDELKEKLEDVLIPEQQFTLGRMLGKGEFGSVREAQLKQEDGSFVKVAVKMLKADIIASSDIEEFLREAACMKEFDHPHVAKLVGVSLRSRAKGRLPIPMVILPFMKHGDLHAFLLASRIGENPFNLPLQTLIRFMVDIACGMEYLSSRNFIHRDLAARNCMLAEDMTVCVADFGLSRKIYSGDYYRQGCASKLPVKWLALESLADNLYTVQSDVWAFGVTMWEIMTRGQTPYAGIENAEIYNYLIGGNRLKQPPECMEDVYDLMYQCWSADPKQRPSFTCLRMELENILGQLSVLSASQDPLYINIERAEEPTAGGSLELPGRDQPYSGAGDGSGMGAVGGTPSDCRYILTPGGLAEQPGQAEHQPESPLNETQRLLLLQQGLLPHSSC

[5] = molecular target: Mitogen-activated protein kinase 9 (Homo sapiens, UniProt P45984); experiment: Selectivity interaction (KinomeScan (DiscoverX)) EUB0001049a MAPK9; conditions: at 1 µM
Chain of Mitogen-activated protein kinase 9 (P45984 whole entry, looked up): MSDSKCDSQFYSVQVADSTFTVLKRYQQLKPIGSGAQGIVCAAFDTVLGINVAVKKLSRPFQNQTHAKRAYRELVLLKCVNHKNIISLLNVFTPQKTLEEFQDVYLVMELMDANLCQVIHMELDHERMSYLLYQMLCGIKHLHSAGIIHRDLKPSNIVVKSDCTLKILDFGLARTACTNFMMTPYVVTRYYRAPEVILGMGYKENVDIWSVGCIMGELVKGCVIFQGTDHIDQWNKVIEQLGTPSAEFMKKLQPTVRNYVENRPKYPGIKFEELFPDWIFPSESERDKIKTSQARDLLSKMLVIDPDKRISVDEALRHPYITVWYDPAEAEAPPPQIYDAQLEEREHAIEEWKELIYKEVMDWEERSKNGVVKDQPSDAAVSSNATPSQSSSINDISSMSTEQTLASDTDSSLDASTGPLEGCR

[6] = molecular target: MAP kinase-activated protein kinase 2 (Homo sapiens, UniProt P49137); experiment: Selectivity interaction (ProQinase) EUB0000171b MAPKAPK2
Chain of MAP kinase-activated protein kinase 2 (P49137 whole entry, looked up, canonical isoform): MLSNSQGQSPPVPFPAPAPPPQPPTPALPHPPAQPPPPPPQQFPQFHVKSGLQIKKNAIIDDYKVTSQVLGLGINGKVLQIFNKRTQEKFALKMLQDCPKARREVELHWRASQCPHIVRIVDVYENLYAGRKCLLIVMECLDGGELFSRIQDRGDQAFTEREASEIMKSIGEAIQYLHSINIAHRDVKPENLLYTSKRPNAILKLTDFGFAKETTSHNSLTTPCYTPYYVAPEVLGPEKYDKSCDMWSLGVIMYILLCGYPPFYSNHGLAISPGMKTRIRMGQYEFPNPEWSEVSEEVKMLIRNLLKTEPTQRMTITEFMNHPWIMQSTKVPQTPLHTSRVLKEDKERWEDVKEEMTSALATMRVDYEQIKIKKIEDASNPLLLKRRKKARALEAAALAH

[7] = molecular target: Casein kinase I isoform gamma-2 (Homo sapiens) (UniProt P78368); experiment: Selectivity interaction (KinomeScan (DiscoverX)) EUB0000618a CSNK1G2; conditions: at 10 µM
Chain of Casein kinase I isoform gamma-2 (Homo sapiens) (P78368 whole entry, looked up, canonical isoform): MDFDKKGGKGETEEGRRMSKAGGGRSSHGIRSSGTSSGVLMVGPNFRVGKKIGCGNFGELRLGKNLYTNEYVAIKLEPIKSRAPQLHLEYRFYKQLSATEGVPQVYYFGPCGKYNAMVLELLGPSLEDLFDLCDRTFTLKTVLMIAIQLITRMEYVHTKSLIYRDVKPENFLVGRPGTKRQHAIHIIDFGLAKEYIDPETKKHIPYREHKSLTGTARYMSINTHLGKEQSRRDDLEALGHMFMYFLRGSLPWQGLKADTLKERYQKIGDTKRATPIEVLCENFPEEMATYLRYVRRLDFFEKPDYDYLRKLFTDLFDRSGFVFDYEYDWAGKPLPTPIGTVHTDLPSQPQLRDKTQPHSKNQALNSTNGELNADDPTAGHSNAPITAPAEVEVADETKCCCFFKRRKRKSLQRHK

[8] = molecular target: Potassium voltage-gated channel subfamily A member 5 (Homo sapiens) (UniProt P22460); experiment: Selectivity interaction (Panel of kinases, GPCRs, ion channels and transporters (enzymatic assay)) EUB0000266bCl KCNA5
[9] = molecular target: Death-associated protein kinase 2 (Homo sapiens) (UniProt Q9UIK4); experiment: Selectivity interaction (KinomeScan (DiscoverX)) EUB0000655a DAPK2; conditions: at 10 µM
Chain of Death-associated protein kinase 2 (Homo sapiens) (Q9UIK4 whole entry, looked up): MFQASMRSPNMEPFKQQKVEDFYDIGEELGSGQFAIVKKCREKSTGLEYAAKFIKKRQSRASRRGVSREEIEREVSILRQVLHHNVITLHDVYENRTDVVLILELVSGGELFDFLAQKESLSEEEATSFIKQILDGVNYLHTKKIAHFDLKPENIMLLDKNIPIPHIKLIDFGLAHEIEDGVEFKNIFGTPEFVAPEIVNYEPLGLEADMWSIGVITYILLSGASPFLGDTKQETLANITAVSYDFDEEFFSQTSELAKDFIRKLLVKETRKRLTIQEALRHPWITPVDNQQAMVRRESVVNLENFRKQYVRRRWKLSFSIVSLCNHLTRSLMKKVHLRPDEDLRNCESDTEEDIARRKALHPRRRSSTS

[10] = molecular target: T2, Ephrin type-B receptor 3 (Homo sapiens) (UniProt P54753); conditions: at 10 µM
T2 sequence (whole entry): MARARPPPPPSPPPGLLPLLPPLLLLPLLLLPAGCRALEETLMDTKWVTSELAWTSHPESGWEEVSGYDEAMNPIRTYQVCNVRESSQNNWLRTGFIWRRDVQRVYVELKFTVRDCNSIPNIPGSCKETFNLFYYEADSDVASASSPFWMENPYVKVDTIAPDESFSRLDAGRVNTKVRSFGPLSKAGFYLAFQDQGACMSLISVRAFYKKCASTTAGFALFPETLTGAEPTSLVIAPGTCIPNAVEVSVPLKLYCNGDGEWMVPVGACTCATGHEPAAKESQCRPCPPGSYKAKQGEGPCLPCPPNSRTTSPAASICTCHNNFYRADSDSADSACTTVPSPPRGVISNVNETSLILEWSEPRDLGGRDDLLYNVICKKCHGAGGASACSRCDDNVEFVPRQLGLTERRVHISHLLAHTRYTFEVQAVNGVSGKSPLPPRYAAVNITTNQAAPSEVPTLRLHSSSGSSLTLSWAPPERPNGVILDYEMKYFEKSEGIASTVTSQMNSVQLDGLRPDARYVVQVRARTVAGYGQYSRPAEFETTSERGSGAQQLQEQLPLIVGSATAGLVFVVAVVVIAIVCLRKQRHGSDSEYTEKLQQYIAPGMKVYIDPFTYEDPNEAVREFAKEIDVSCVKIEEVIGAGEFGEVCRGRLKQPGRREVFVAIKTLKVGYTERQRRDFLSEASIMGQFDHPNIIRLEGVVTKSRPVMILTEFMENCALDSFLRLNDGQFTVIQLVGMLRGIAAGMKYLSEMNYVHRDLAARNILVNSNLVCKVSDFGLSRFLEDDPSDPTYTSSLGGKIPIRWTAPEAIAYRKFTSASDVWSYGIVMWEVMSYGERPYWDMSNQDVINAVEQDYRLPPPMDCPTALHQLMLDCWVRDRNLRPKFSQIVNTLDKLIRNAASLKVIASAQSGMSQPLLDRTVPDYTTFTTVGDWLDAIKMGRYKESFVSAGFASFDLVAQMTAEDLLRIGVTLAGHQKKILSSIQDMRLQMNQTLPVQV

Chain of Protein-tyrosine kinase 6 (Q13882 whole entry, looked up): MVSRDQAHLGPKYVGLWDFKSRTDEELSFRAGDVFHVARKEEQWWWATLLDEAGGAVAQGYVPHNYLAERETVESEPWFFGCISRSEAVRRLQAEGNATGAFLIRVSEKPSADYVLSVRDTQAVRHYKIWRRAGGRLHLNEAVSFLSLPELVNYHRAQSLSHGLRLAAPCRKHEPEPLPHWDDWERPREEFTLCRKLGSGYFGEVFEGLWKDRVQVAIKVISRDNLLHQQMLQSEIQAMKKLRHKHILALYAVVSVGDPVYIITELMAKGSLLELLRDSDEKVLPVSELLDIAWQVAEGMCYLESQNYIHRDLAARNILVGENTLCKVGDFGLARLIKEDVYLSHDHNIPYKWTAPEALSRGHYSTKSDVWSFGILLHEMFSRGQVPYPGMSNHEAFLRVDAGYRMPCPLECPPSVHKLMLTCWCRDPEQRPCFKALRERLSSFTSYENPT

COc1cc(N(C)c2ccnc3ccc(C(F)(F)F)cc23)cc(OC)c1OC
% binding [1]: 94%

C=CC(=O)Nc1cc(-n2c(=O)ccc3cnc4ccc(-c5ccc(NS(C)(=O)=O)cc5)cc4c32)ccc1C
% of control ([2]; at 1 µM): 100% | % of control ([2]; at 10 µM): 100%

Cn1cc(-n2cnc3c(NCc4nc5cc(Cl)c(Cl)cc5[nH]4)nc(N4CCOCC4)nc32)cn1
% of control [3]: -2.74%

Cc1cnc(Nc2ccc(F)cc2Cl)nc1-c1c[nH]c(C(=O)N[C@H](CO)c2cccc(Cl)c2)c1
% of inhibition [4]: 0%

COc1cc(Nc2nc(C)cc(-c3cnn4nc(OC)ccc34)n2)cc(C(F)(F)F)c1
% of control [5]: 82%

C=CC(=O)Nc1cccc(C(=O)Nc2ccc(Nc3cc(-c4[nH]c(SC)nc4C)ccn3)cc2)c1
% of control ([6]; at 1 µM): 71% | % of control ([6]; at 5 µM): 42%

O[C@H]1CC[C@H](Nc2ncc3nc(Nc4c(F)cc(F)cc4F)n([C@H]4CCOC4)c3n2)CC1
% of control [7]: 100%

CCn1c(-c2nc3cc(C(=O)N4CCCC(N)C4)ccc3n2C)cc2ccccc21 (configuration not stated)
pXC50 [8]: < 4.3 M

CN(C)CCOc1ccc(-c2nc(-c3ccncc3)c(-c3ccc4c(c3)CC/C4=N\O)[nH]2)cc1
% of control [9]: 100%

CCN(CC)CCCCNc1ncc2cc(-c3cc(OC)cc(OC)c3)c(NC(=O)NC(C)(C)C)nc2n1
% of control [10]: 100%
